# Laboratory results reported in patent US6534524B1, “Indazole compounds and pharmaceutical compositions for inhibiting protein kinases, and methods for their use” (Agouron Pharmaceuticals, Inc., priority 1999, dated 2003).
# Where two headings read alike, the source gives them in different places.
# Assays:
# [1] = target: phosphorylated VEGF-R2Δ50 (FLVK-P) (Homo sapiens, UniProt P35968, DEL940-989/E990V); experiment: VEGF-R2 coupled spectrophotometric assay, phosphorylated VEGF-R2Δ50 (FLVK-P)
# [2] = target: unphosphorylated VEGF-R2Δ50 (FLVK) (Homo sapiens, UniProt P35968, DEL940-989/E990V); experiment: VEGF-R2 coupled spectrophotometric assay, unphosphorylated VEGF-R2Δ50 (FLVK); settings: FLVK Ki, Table 1
# [3] = target: CDK4/Cyclin D3 complex (Homo sapiens, UniProt P11802); experiment: CDK4/Cyclin D assay ([32P]ATP, Rb fragment)
# [4] = target: human FGF-R1 (Homo sapiens, UniProt P11362, C488A/C584S/L457V); experiment: FGF-R spectrophotometric assay
# [5] = target: CDK2/Cyclin A (Homo sapiens, UniProt P24941); experiment: CDK2/Cyclin A assay ([32P]ATP, Rb fragment); type: biochemical; settings: Table 2
# [6] = Human liver microsome (HLM) assay; type: in vitro ADME; settings: human liver microsomes, 5 μM test compound
# In short: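 Compound metabolism in human liver microsomes measured in triplicate. Samples at 0 and 2 h centrifuged at 14000 g for 10 min and analysed by LC-MS.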
# [7] = Determination of inhibitor concentration in mouse plasma after intraperitoneal and oral dosing; type: in vivo; settings: for AUClast / plasma half-life (T1/2) / Cmax: vehicle PEG400:H2O pH 2.3 30:70; for concentration at 7 h: female, vehicle PEG400:H2O pH 2.3 30:70, read-out: Cmin (7 hr conc.)
# In short: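 Mice dosed intraperitoneally or orally; blood taken by ocular bleed at 0.5, 1 and 4 h and by intracardiac puncture at 7 h. Plasma extracted with ethyl acetate after internal standard and NaOH addition, analysed by HPLC or LC-MS against a mouse-plasma standard curve.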
# [8] = tested on: human umbilical vein endothelial cells (HUVEC); experiment: HUVEC proliferation assay (VEGF-stimulated, MTT); type: cell-based; settings: Homo sapiens, HUVEC, + albumin; read-out: HUVEC + albumin IC50
# Sequence of human FGF-R1 (P11362 456-766 L457V/C488A/C584S): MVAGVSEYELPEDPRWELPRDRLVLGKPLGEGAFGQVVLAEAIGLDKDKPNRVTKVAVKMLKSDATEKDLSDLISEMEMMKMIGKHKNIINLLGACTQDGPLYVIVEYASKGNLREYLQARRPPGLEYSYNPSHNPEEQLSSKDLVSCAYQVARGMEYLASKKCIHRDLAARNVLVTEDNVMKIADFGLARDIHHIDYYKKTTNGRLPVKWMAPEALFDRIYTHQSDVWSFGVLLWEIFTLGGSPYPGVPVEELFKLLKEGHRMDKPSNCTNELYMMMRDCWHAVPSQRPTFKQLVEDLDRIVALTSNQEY
# Sequence of unphosphorylated VEGF-R2Δ50 (FLVK) (P35968 with tags, fused parts or gaps DEL940-989/E990V limits assumed): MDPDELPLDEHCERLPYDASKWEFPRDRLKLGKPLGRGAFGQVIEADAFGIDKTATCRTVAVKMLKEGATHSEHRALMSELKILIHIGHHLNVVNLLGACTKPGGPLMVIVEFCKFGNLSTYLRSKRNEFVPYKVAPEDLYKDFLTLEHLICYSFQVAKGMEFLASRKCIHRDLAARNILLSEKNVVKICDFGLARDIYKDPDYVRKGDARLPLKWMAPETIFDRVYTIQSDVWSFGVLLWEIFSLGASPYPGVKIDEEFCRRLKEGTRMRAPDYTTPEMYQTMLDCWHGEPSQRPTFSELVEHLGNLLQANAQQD
# Sequence of phosphorylated VEGF-R2Δ50 (FLVK-P) (P35968 with tags, fused parts or gaps DEL940-989/E990V limits assumed): as above
# Sequence of CDK4/Cyclin D3 complex (P11802 whole entry, the tested form may be a part): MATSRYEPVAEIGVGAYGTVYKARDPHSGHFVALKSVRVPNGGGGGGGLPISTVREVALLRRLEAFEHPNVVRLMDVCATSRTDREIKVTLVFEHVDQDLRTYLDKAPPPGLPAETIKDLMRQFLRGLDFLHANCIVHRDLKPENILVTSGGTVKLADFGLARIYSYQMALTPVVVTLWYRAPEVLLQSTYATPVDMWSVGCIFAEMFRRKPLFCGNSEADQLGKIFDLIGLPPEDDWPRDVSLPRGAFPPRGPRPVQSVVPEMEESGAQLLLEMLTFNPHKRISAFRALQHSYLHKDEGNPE
# Sequence of CDK4/Cyclin D3 complex (P30281 whole entry partner, the tested form may be a part): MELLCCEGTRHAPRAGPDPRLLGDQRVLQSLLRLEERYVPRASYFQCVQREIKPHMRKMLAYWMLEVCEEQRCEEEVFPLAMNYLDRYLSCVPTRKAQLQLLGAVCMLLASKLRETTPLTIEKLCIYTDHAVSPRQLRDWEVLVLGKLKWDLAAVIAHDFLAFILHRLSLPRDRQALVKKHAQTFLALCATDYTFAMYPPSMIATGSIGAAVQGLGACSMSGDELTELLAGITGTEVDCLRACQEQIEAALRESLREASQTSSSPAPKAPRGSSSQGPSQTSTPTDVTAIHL
smiles,measurement,setting,value
"CN(C)c1cccc(C(=O)Nc2cccc(N(C)c3ccc4c(/C=C/c5ccc6c(c5)OCO6)n[nH]c4c3)c2)c1 [Example 16(c), N-(3-{[3-(2-Benzo[1,3]dioxol-5-yl-vinyl)-1H-indazol-6-yl]-methyl-amino}-phenyl)-3-dimethylamino-benzamide]",Ki,[1],1.1 nM
"C=C(c1cccc(NC(=O)c2ncc(C)s2)c1)c1ccc2c(/C=C/c3ccccc3)n[nH]c2c1 [Example 22(a), 6-(1-(3-(5-Methyl-thiaxole-2-carboxoylamido)phenyl)-vinyl)-3-styryl-1H-indazole]",Ki,[1],0.2 nM
same,Ki,[2],0.22 nM
"CSc1cc(O)ccc1-c1ccc2c(-c3nc4ccccc4[nH]3)n[nH]c2c1 [Example 24(k), 3-1H-Benzoimidazol-2-yl-6-(2-methylsulfanyl-4-hydroxyphenyl)-1H-indazole]",Ki,[3],7.2 nM
same,Ki,[4],160 nM
same,Ki,[5],56 nM
"CN(c1cccc(N)c1)c1ccc2c(/C=C/c3ccc4c(c3)OCO4)n[nH]c2c1 [Example 15, N-[3-(2-Benzo[1,3]dioxol-5-yl-vinyl)-1H-indazol-6-yl]-N-methyl-benzene-1,3-diamine]",Ki,[1],15 nM
"CONC(=O)c1ccccc1Sc1ccc2c(/C=C/c3ccccn3)n[nH]c2c1 [Example 35(r), 6-[2-(Methoxycarbamoyl)phenylsulfanyl]-3-E-[2-(pyridin-2-yl)ethenyl]-1H-indazole]","% remain (HLM, 2 h)",[6],51%
same,Ki,[2],0.11 nM
same,Ki,[4],20 nM
same,AUClast,"[7]; PO, 25 mg/kg",4261 ng·h/mL
same,plasma half-life (T1/2),"[7]; PO, 25 mg/kg",1.3 h
same,concentration at 7 h,"[7]; PO, 25 mg/kg",67 ng/mL
"CC(=O)Nc1cccc(C(=O)c2ccc3c(/C=C/c4ccccc4)n[nH]c3c2)c1 [Example 19(a), N-[3-(3-Styryl-1H-indazole-6-carbonyl)-phenyl]-acetamide]",Ki,[1],6.8 nM
same,Ki,[2],13.8 nM
"C=CCn1nc(C)cc1C(=O)Nc1cc(C(=O)c2ccc3c(/C=C/c4ccccn4)n[nH]c3c2)ccc1C [Example 41(ff), 6-[3-((1-Allyl-3-methyl-1H-pyrazol-5-yl)carboxamido)-4-methylbenzoyl]-3-E-[2-(pyridin-2-yl)ethenyl]-1H-indazole]","% remain (HLM, 2 h)",[6],68%
same,Ki,[4],12 nM
same,AUClast,"[7]; PO, 25 mg/kg",9176 ng·h/mL
same,plasma half-life (T1/2),"[7]; PO, 25 mg/kg",2.0 h
same,concentration at 7 h,"[7]; PO, 25 mg/kg",410 ng/mL
"CCn1nc(C)cc1C(=O)Nc1cc(Nc2ccc3c(/C=C/c4ccccn4)n[nH]c3c2)c(F)cc1C [Example 48(a), 6-[N-(5-((1-Ethyl-3-methyl-1H-pyrazol-5-yl)carboxanido)-2-fluoro-4-methylphenyl)amino]-3-E-[2-(pyridin-2-yl)ethenyl]-1H-indazole]","% remain (HLM, 2 h)",[6],55%
same,Ki,[2],0.37 nM
same,IC50,[8],8.8 nM
same,Ki,[4],14 nM
"Cc1cncc(C(=O)Nc2cccc(C(=O)c3ccc4c(/C=C/c5ccccc5)n[nH]c4c3)c2)c1 [Example 19(e), 6-[3-(5-Methylpyridin-3-ylcarboxamido)benzoyl]-3-E-styryl-1H-indazole]",Ki,[1],20 nM
"CC(=O)Nc1cc(C(=O)c2ccc3c(/C=C/c4ccccn4)n[nH]c3c2)ccc1C [Example 41(gg), 6-(3-Acetamido-4-methylbenzoyl)-3-E-[2-(pyridin-2-yl)ethenyl]-1H-indazole]",Ki,[4],3.5 nM
same,AUClast,"[7]; PO, 25 mg/kg",2692 ng·h/mL
same,Cmax,"[7]; PO, 25 mg/kg",2079 ng/mL
same,plasma half-life (T1/2),"[7]; PO, 25 mg/kg",1.1 h
same,concentration at 7 h,"[7]; PO, 25 mg/kg",29 ng/mL
"CN(c1cccc(N)c1)c1ccc2c(/C=C/c3ccccc3)n[nH]c2c1 [Example 11, N-Methyl-N-(3-styryl-1H-indazol-6-yl)-benzene-1,3-diamine]",Ki,[2],12 nM
same,Ki,[4],34000 nM
"O=CNc1ccccc1/C=C/c1n[nH]c2cc(C(=O)c3cccc(NC(=O)c4ccccc4)c3)ccc12 [Example 43, 6-(3-Benzamidobenzoyl)-3-E-[2-(2-formamidophenyl)ethenyl]-1H-indazole]",inhibition at 0.05 µM,[1]; read-out: FLVK-P % inhibition,56%
same,IC50,[8],24 nM
Cc1cccc(C(=O)Nc2cccc(Oc3ccc4c(-c5cc6ccccc6[nH]5)n[nH]c4c3)c2)c1 [Example 6(b)],Ki,[1],0.15 nM
"CCn1nc(C)cc1C(=O)Nc1cccc(C(=O)c2ccc3c(/C=C/c4ccccn4)n[nH]c3c2)c1 [Example 41(a), 6-[3-((1-Ethyl-3-methyl-1H-pyrazol-5-yl)carboxamido)benzoyl]-3-E-[2-(pyridin-2-yl)ethenyl]-1H-indazole]","% remain (HLM, 2 h)",[6],96%
same,Ki,[2],0.03 nM
same,Ki,[4],20 nM
same,AUClast,"[7]; IP, 25 mg/kg",92823 ng·h/mL
same,Cmax,"[7]; IP, 25 mg/kg",32202 ng/mL
same,plasma half-life (T1/2),"[7]; IP, 25 mg/kg",2.9 h
same,AUClast,"[7]; PO, 50 mg/kg",48998 ng·h/mL
same,Cmax,"[7]; PO, 50 mg/kg",18433 ng/mL
same,plasma half-life (T1/2),"[7]; PO, 50 mg/kg",3.4 h
same,concentration at 7 h,"[7]; IP, 25 mg/kg",3860 ng/mL
same,concentration at 7 h,"[7]; PO, 50 mg/kg",2460 ng/mL
